Legend:
[1] = system: human lung adenocarcinoma A549 cells; assay: Cytotoxicity against lung cancer cells A549 (MTT assay); type: cell-based; settings: for IC50 / viability at 50 µg/mL: Homo sapiens, A549, MTT; for IC50: 72 h of treatment, mean ± SE; for Selectivity Index SI: SI = IC50 value for normal cells (MRC-5)/IC50 value for cancer cells (A549); for viability at 50 µg/mL: 50 μg/mL, 72 h, read-out: cell viability of cancer cells
Method: The effect of the AMTs 1–8 on cell viability was investigated in the human lung cancer cell line A549. […] It has been reported that compounds with SI value higher or equal to 2.0 are potentially selective. […] It is worth noting that after treatment with 50 μg/mL of these two AMTs, the cell viability was lower than 15% for cancer cells and higher than 55% for normal cells.
Figure 4 Effects of different concentrations of meroterpenoids 1–8 on the viability of human lung cancer cell line A549 and the human fetal lung fibroblastic MRC-5 cells, using MTT assay after 72 h of treatment. Data are mean ±SE of three independent experiments. * p < 0.05, ** p < 0.01 and […] between the two cell lines.
Cell proliferation was evaluated by a modified MTT assay, which measures the mitochondrial dehydrogenase activity. A total of 5 × 10^3 cells/well (MRC-5 cells) and 3 × 10^3 cells/well (A549 cells) were cultured in a 96-well plate for 24 h. Then, treatments were added to the cell culture. After 72 h of incubation, the medium was removed and 125 µL of MTT (1 mg/mL in medium) was added to each well and incubated for 4 h. Next, 80 µL of 20% sodium dodecyl sulphate (SDS) was added and incubated for 5 h at 37 °C. The optical density of each well was measured at 540 nm (Synergy HT multiwell plate spectrophotometer reader, BioTek Instruments Inc., Winooski, VT, USA) to quantify cell viability. Cell viability (%) was calculated according to the following formula: % viability = (absorbance of compounds treated cells/absorbance of control cells) × 100. The degree of selectivity of the compounds was expressed by its SI value. Each SI value was calculated using the formula: SI = IC50 normal cell/IC50 cancer cell.

IL-1β = IL-1β production in LPS-stimulated THP-1 macrophages (ELISA); type: cell-based; settings: Homo sapiens, 1 h pretreatment, then LPS 1 μg/mL 24 h; for inhibition at 8 µg/mL: 8 μg/mL; for inhibition at 4 µg/mL: 4 μg/mL
Method: (§1) To determine the effects of the AMTs 1–8 on the production of TNF-α, IL-6, and IL-1β, THP-1 macrophaghes were pretreated with the compounds and then stimulated with LPS, as the triggering factor to stimulate the cytokines production. The levels of pro-inflammatory cytokines in the cell supernatants were determined using the enzyme-linked immunosorbent (ELISA) kits.
(§2) Figure 2 Meroterpenoids 1–8 inhibit LPS-induced expression of TNF-α, IL-6, and IL-1β in THP-1 macrophages (A, B, and C) respectively. Cells were pretreated for 1 h with the compounds (1, 2, 3, 4, 7, and 8 at 8 μg/mL; 5 and 6 at 4 μg/mL), followed by 24 h treatment with LPS. TNF-α (A), IL-6 (B) and IL-1β (C) contents in the culture medium were determined by ELISA. Dexametasone (DEX) was used as positive control. Data are expressed as means ± SE from three independent experiments. Statistical significance is indicated (+++p < 0.001 and +++< 0.01 vs. Control; respectively * p < 0.05, ** p < 0.01, *** p < 0.001 vs. Control + LPS).
(§3) THP-1 cells were plated at a density of 3 × 10^5 cells/mL in 24-well plates and incubated with PMA (0.2 μM) for 72 h in a humidified atmosphere of 5% CO2 at 37 °C. The macrophages were pre-treated for 1 h with AMTs 1–8 (8 μg/mL for compounds 1, 2, 3, 4, 7, and 8, and 4 μg/mL for 5 and 6) and then stimulated with lipopolysaccharide (LPS, 1 μg/mL) for another 24 h. Dexamethasone (Dex) was used as positive reference compound at 1 μM. The viability of cells was greater than 95% throughout the experiment. The levels of TNF-α, IL-6, and IL-1ß in supernatants were measured with enzyme-linked immune-sorbent assay (ELISA) kits (Diaclone GEN-PROBE, Besançon cedex, France) according to the manufacturer’s protocols. The absorbance was determined at 450 nm using a microplate reader. To calculate the concentration of cytokines, a standard curve was constructed using serial dilutions of cytokine standards provided with the kit.

THP-1 macrophages = assay: Cell viability of THP-1 macrophages (SRB assay); type: cell-based, human; settings: LPS-stimulated THP-1 macrophages, 0–100 µg/mL, 48 and 72 h, data not shown
Method: The cytotoxic effect of AMTs 1–8 on LPS-stimulated THP-1 macrophages was determined at different concentrations and incubation times (0–100 µg/mL, 48 and 72 h) using the SRB assay. […] Therefore, in order to rule out cytotoxic effects, compounds 1, 2, 3, 4, 7, and 8 were tested on THP-1 cells at maximum concentration of 8 µg/mL while 5 and 6 were tested at maximum concentration of 4 µg/mL. The viability of THP-1 cells was measured by the SRB assay. The cells were seeded in 96-well plates with the growth medium at a density of 1 × 10^4 cells per well, and differentiation into macrophages was induced by 0.2 μM of phorbol myristate acetate (PMA). Three days after differentiation into macrophages, the cells were treated with various concentrations (0, 3.125, 6.25, 12.5, 25, 50, 100 µg/mL) of the AMTs 1–8 in fresh medium and incubated for another 72 h. Then, the cells were fixed with 50 μL of TCA (50%) and processed, as described in the literature.

IL-6 = IL-6 production in LPS-stimulated THP-1 macrophages (ELISA); type: cell-based; settings: Homo sapiens, 1 h pretreatment, then LPS 1 μg/mL 24 h; for inhibition at 8 µg/mL: 8 μg/mL; for inhibition at 4 µg/mL: 4 μg/mL
Method: as §1, §2, §3

| SMILES | IC50 [1] [µg/mL] | Selectivity Index SI [1] | inhibition at 8 µg/mL (IL-1β) [%] | concentration up to which cell viability is not affected (THP-1 macrophages) | inhibition at 8 µg/mL (IL-6) [%] | viability at 50 µg/mL [1] [%] | inhibition at 4 µg/mL (IL-1β) [%] | inhibition at 4 µg/mL (IL-6) [%] |
| --- | --- | --- | --- | --- | --- | --- | --- | --- |
| COc1c(C)cc(O)cc1C/C=C(\C)CC(=O)/C=C(/C)CCCC(C)(O)C(=O)/C=C/C(C)(C)O (centres unmarked) [Compound 1, usneoidone Z] | 8.68 ± 0.15 | 1.22 | 74.6 | up to 10 µg/mL | 71.2 | – | – | – |
| COc1c(C)cc(O)cc1C/C=C(\C)CC(=O)/C=C(\C)CCCC(C)(O)C(=O)/C=C/C(C)(C)O (centres unmarked) [Compound 2, 11-hydroxy-1’-O-methylamentadione] | 6.61 ± 0.38 | 1.30 | 84.4 | up to 10 µg/mL | 80.8 | – | – | – |
| COc1c(C)cc(O)cc1C/C=C(\C)CC(=O)/C=C(\C)CCCC(C)=O [Compound 3, cystomexicone B] | 24.4 ± 1.71 | 2.12 | 35.3 | up to 10 µg/mL | 69.2 | < 15 | – | – |
| COc1c(C)cc(O)cc1C/C=C(\C)CC(=O)/C=C(/C)CCCC(C)=O [Compound 4, cystomexicone A] | 21 ± 1.79 | 2.78 | – | up to 10 µg/mL | 43 | < 15 | – | – |
| COc1c(C)cc(O)cc1C/C=C(\C)CC(=O)/C=C(/C)CCCC(C)C(=O)/C=C/C(C)(C)O (stereo not drawn) [Compound 5, 6-cis-amentadione-1′-methyl ether] | 4.56 ± 0.21 | 1.83 | – | up to 6 µg/mL | – | – | 86 | 67.8 |
| COc1c(C)cc(O)cc1C/C=C(\C)CC(=O)/C=C(\C)CCCC(C)C(=O)/C=C/C(C)(C)O (centres unmarked) [Compound 6, amentadione-1′-methyl ether] | 6.19 ± 0.25 | 1.43 | – | up to 6 µg/mL | – | – | 61.1 | 50.9 |
| COc1c(C)cc(O)cc1/C=C/C(C)(O)CC(=O)/C=C(/C)CCCC(C)C(=O)/C=C/C(C)(C)O (centres unmarked) [Compound 7, cystodione A] | 9.31 ± 0.33 | 1.55 | 44.9 | up to 10 µg/mL | 49.6 | – | – | – |
| COc1c(C)cc(O)cc1/C=C/C(C)(O)CC(=O)/C=C(\C)CCCC(C)C(=O)/C=C/C(C)(C)O (centres unmarked) [Compound 8, cystodione B] | 13.6 ± 0.55 | 1.28 | 44.6 | up to 10 µg/mL | 58.9 | – | – | – |

— article PMC7230911, “Meroterpenoids from the Brown Alga Cystoseira usneoides as Potential Anti-Inflammatory and Lung Anticancer Agents” (Marine Drugs, 2020)
